Reference: patent publication US20180339963A1, “ANTICONVULSANT CARBAMATE DERIVATIVES” (Yissum Research Development Company of the Hebrew …, priority 2017, published 2018)
Read-outs that look alike come from different tables or passages of the source. Marks after values point to notes of the source that are not given here.

Key:
SWV mice = assay: Teratogenicity in the SWV mouse model; format: in vivo; conditions: for No. of fetuses with NTDs / No. of implants / No. of live fetuses / No. of resorptions / Fetal weight mean ± SD: day 8.5 of gestation; for Fetal weight mean ± SD: in g (unit assumed); for No. of live fetuses, figure in parentheses / No. of resorptions, figure in parentheses: share of implants; for No. of fetuses with NTDs, figure in parentheses: share of live fetuses
Description: The teratogenic properties of the newly designed compounds (1-10) were evaluated in the highly inbred SWV mice strain known for its high susceptibility to VPA-induced neural tube defects (NTDs). Two month old nulligravid females, were mated overnight with males and examined for the presence of vaginal plugs the following morning, and the onset of gestation was considered to be 10 p.m. of the previous night, the midpoint of the dark cycle. At day 8.5 of gestation, each dam received a single i.p. injection of the test compounds in an equimolar dose of 0.9 or 1.8 mmol/kg and the control dams were injected with vehicle (25% water solution of Cremophore EL, Fluka Biochemica Germany). The volume of injection was 10 μL/g of body weight. […] At gestation day […], the dams were euthanized by carbon dioxide asphyxiation followed by cervical dislocation. After the opening the uterus, the location of all viable fetuses and resorption sites were recorded, and the fetuses were examined for the presence of exencephaly or other gross congenital abnormalities. The teratogenicity data (implantations, resorptions and NTDs) were evaluated for significant differences between the control and treated groups by analyzing the contingency table with Fisher's exact test. Statistical analysis was conducted using GraphPad InStat (version 3.06; GraphPad Software, San Diego, Calif., USA), and the results of all tests were considered to be statistically significant when the p-value was less than 0.05

mice = assay: Neurotoxicity (minimal motor impairment, rotarod) in mice; conditions: mice i.p.
in vivo [1] = conditions: male, CF no. 1 albino, mouse, ip
[2] = test system: pentylenetetrazol-induced seizure (scMet); assay: Subcutaneous metrazol seizure test (scMet) in mice; conditions: Mus musculus, ip, read-out: scMet-ED50
[3] = test system: pentylenetetrazol-induced seizure (scMet); assay: Subcutaneous metrazol seizure test (scMet) in rats; conditions: for ED50: Rattus norvegicus, po, read-out: scMet ED50; for scMet ED50: rats, p.o.
hCA I = target: T1, hCA I (Homo sapiens, UniProt P00915); assay: Stopped flow CO2 hydrase assay, hCA I; format: biochemical; conditions: mean from 3 assays, read-out: K1, hCAI
T1 construct: made in house
T1 sequence (P00915 whole entry): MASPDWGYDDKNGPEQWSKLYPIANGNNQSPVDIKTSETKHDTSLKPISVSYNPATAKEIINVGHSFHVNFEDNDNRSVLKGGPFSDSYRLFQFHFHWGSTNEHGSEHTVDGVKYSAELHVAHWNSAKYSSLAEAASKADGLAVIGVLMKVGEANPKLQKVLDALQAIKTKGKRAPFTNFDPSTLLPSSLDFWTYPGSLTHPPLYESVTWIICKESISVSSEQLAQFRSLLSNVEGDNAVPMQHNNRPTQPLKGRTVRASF
Description: (§1) An Applied Photophysics stopped-flow instrument has been used for assaying the CA catalysed CO2 hydration activity. Phenol red (at a concentration of 0.2 mM) has been used as indicator, working at the absorbance maximum of 557 nm, with 20 mM Hepes (pH 7.5) as buffer, and 20 mM Na2SO4 (for maintaining constant the ionic strength), following the initial rates of the CA-catalyzed CO2 hydration reaction for a period of 10-100 s. The CO2 concentrations ranged from 1.7 to 17 mM for the determination of the kinetic parameters and inhibition constants. […] The uncatalyzed rates were determined in the same manner and subtracted from the total observed rates. Stock solutions of inhibitor (0.1 mM) were prepared in distilled-deionized water and dilutions up to 0.01 nM were done thereafter with the assay buffer. […] The inhibition constants were obtained by non-linear least-squares methods using PRISM 3 and the Cheng-Prusoff equation, as reported earlier and represent the mean from at least three different determinations. All CA isofoms were recombinant ones obtained in-house.

hCA VII = target: T2, hCA VII (Homo sapiens, UniProt P43166); assay: Stopped flow CO2 hydrase assay, hCA VII; format: biochemical; conditions: mean from 3 assays, read-out: K1, hCA VII
T2 construct: made in house
T2 sequence (P43166 whole entry): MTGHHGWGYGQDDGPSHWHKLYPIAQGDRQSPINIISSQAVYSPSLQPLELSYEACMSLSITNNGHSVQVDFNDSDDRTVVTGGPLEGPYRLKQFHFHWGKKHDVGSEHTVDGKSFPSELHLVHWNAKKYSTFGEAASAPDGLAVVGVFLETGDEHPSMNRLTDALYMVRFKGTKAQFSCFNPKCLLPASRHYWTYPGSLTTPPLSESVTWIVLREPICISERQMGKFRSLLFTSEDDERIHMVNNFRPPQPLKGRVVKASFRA
Description: as §1

[4] = test system: maximal electroshock seizure (MES); assay: Maximal electroshock seizure (MES) test in rats; conditions: for ED50: Rattus norvegicus; for MES-ED50: rats, p.o.
hCA IV = target: T3, hCA IV (Homo sapiens, UniProt P22748); assay: Stopped flow CO2 hydrase assay, hCA IV; format: biochemical; conditions: mean from 3 assays
T3 construct: made in house
T3 sequence (P22748 19-284): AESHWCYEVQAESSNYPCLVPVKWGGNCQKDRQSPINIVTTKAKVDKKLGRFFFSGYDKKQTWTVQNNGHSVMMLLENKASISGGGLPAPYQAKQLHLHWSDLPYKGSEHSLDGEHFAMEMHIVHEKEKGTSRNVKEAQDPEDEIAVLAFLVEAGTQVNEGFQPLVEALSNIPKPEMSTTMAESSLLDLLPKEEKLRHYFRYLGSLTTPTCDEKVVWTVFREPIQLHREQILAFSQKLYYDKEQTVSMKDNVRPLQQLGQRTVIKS
Description: as §1

[5] = test system: maximal electroshock seizure (MES); assay: Maximal electroshock seizure (MES) test in mice; conditions: Mus musculus, ip; for responders at 30 mg/kg / responders at 100 mg/kg / responders at 300 mg/kg: read-out: MES, number of mice protected/number of mice tested; for ED50: read-out: MES-ED50, mice, i.p.
in vivo [6] = conditions: Sprague-Dawley, rat
6 Hz psychomotor seizure = 6 Hz psychomotor seizure test in mice; conditions: Mus musculus, ip; for responders at 30 mg/kg / responders at 100 mg/kg / responders at 300 mg/kg: read-out: 6 Hz, number of mice protected/number of mice tested
hCA II = target: T4, hCA II (Homo sapiens, UniProt P00918); assay: Stopped flow CO2 hydrase assay, hCA II; format: biochemical; conditions: mean from 3 assays, read-out: K1, hCA II
T4 construct: made in house
Description: as §1

corneal kindled mouse = assay: Corneal kindled mouse (CKM) model; format: in vivo; conditions: ip, mice
[7] = po, read-out: MES-ED50, rats, p.o.
[8] = read-out: 6 Hz-ED50, mice, i.p., 32 mA

CCC(C)C(C)OC(=O)Nc1ccc(S(N)(=O)=O)cc1 (stereo not shown) [Compound 9, 3-methylpentan-2-yl (4-sulfamoylphenyl)carbamate]
induction of neural tube defects relative to anticonvulsant effective dose (in words) (SWV mice): induced neural tube defects only at doses markedly exceeding their effective dose
No. of fetuses with NTDs (SWV mice; single i.p. 0.9 mmol/kg): 3
No. of implants (SWV mice; single i.p. 0.9 mmol/kg): 126
No. of live fetuses (SWV mice; single i.p. 0.9 mmol/kg): 109
No. of resorptions (SWV mice; single i.p. 0.9 mmol/kg): 17
Fetal weight mean ± SD (SWV mice; single i.p. 0.9 mmol/kg): 0.90 ± 0.07
No. of live fetuses, figure in parentheses (SWV mice; single i.p. 0.9 mmol/kg): 86.5%
No. of resorptions, figure in parentheses (SWV mice; single i.p. 0.9 mmol/kg): 13.5%
No. of fetuses with NTDs, figure in parentheses (SWV mice; single i.p. 0.9 mmol/kg): (2.8)
No. of fetuses with NTDs (SWV mice; single i.p. 1.8 mmol/kg): 9
No. of implants (SWV mice; single i.p. 1.8 mmol/kg): 107
No. of live fetuses (SWV mice; single i.p. 1.8 mmol/kg): 49
No. of resorptions (SWV mice; single i.p. 1.8 mmol/kg): 58
Fetal weight mean ± SD (SWV mice; single i.p. 1.8 mmol/kg): 0.89 ± 0.08
No. of live fetuses, figure in parentheses (SWV mice; single i.p. 1.8 mmol/kg): 45.8%
No. of resorptions, figure in parentheses (SWV mice; single i.p. 1.8 mmol/kg): 54.2%
No. of fetuses with NTDs, figure in parentheses (SWV mice; single i.p. 1.8 mmol/kg): (18.4)*
Tox (motor impairment or sedation), number of animals affected/number of animals tested (mice; 30 mg/kg, 0.5 h): 0/8
Tox (motor impairment or sedation), number of animals affected/number of animals tested (mice; 30 mg/kg, 2.0 h): 0/8
Tox (motor impairment or sedation), number of animals affected/number of animals tested (mice; 100 mg/kg, 0.5 h): 0/8
Tox (motor impairment or sedation), number of animals affected/number of animals tested (mice; 100 mg/kg, 2.0 h): 0/8
Tox (motor impairment or sedation), number of animals affected/number of animals tested (mice; 300 mg/kg, 0.5 h): 0/8
Tox (motor impairment or sedation), number of animals affected/number of animals tested (mice; 300 mg/kg, 2.0 h): 0/8
TD50 (in vivo [1]): > 600 mg/kg
ED50 [2]: 369 mg/kg
ED50 [3]: > 250 mg/kg
scMet ED50 [3]: inactive
Ki (hCA I): 72.9 nM
Ki (hCA VII): 35.5 nM
ED50 [4, 7]: 23 mg/kg
MES-ED50 [4]: 28 mg/kg
K1, hCA IV (hCA IV): medium potency inhibitors
Ki (hCA IV; read-out: K1, hCA IV): 183 nM
responders at 30 mg/kg ([5]; 0.5 h): 75%
responders at 100 mg/kg ([5]; 0.5 h): 75%
responders at 300 mg/kg ([5]; 0.5 h): 100%
responders at 30 mg/kg ([5]; 2 h): 0%
responders at 100 mg/kg ([5]; 2 h): 100%
responders at 300 mg/kg ([5]; 2 h): 100%
ED50 [5]: 31 mg/kg
TD50 (in vivo [6]; male, po): > 500 mg/kg
melting point: 179 to 180 °C
responders at 30 mg/kg (6 Hz psychomotor seizure; 0.5 h): 50%
responders at 100 mg/kg (6 Hz psychomotor seizure; 0.5 h): 50%
responders at 300 mg/kg (6 Hz psychomotor seizure; 0.5 h): 100%
responders at 30 mg/kg (6 Hz psychomotor seizure; 2 h): 0%
responders at 100 mg/kg (6 Hz psychomotor seizure; 2 h): 0%
responders at 300 mg/kg (6 Hz psychomotor seizure; 2 h): 25%
ED50 (6 Hz psychomotor seizure; [8]): 53 mg/kg
Ki (hCA II): 5.4 nM

CCC(C)CCOC(=O)Nc1ccc(S(N)(=O)=O)cc1 (stereo not shown) [Compound 10, 3-methylpentyl(4-sulfamoylphenyl)carbamate]
induction of neural tube defects relative to anticonvulsant effective dose (in words) (SWV mice): induced neural tube defects only at doses markedly exceeding their effective dose
No. of fetuses with NTDs (SWV mice; single i.p. 0.9 mmol/kg): 9
No. of implants (SWV mice; single i.p. 0.9 mmol/kg): 145
No. of live fetuses (SWV mice; single i.p. 0.9 mmol/kg): 116
No. of resorptions (SWV mice; single i.p. 0.9 mmol/kg): 29
Fetal weight mean ± SD (SWV mice; single i.p. 0.9 mmol/kg): 0.88 ± 0.03
No. of live fetuses, figure in parentheses (SWV mice; single i.p. 0.9 mmol/kg): 80%
No. of resorptions, figure in parentheses (SWV mice; single i.p. 0.9 mmol/kg): 20%
No. of fetuses with NTDs, figure in parentheses (SWV mice; single i.p. 0.9 mmol/kg): (7.8)*
No. of fetuses with NTDs (SWV mice; single i.p. 1.8 mmol/kg): 17
No. of implants (SWV mice; single i.p. 1.8 mmol/kg): 108
No. of live fetuses (SWV mice; single i.p. 1.8 mmol/kg): 56
No. of resorptions (SWV mice; single i.p. 1.8 mmol/kg): 52
Fetal weight mean ± SD (SWV mice; single i.p. 1.8 mmol/kg): 0.87 ± 0.08
No. of live fetuses, figure in parentheses (SWV mice; single i.p. 1.8 mmol/kg): 51.9%
No. of resorptions, figure in parentheses (SWV mice; single i.p. 1.8 mmol/kg): 48.2%
No. of fetuses with NTDs, figure in parentheses (SWV mice; single i.p. 1.8 mmol/kg): (30.4)*
Tox (motor impairment or sedation), number of animals affected/number of animals tested (mice; 30 mg/kg, 0.5 h): 1/8
Tox (motor impairment or sedation), number of animals affected/number of animals tested (mice; 30 mg/kg, 2.0 h): 0/8
Tox (motor impairment or sedation), number of animals affected/number of animals tested (mice; 100 mg/kg, 0.5 h): 0/8
Tox (motor impairment or sedation), number of animals affected/number of animals tested (mice; 100 mg/kg, 2.0 h): 0/8
Tox (motor impairment or sedation), number of animals affected/number of animals tested (mice; 300 mg/kg, 0.5 h): 1/8
Tox (motor impairment or sedation), number of animals affected/number of animals tested (mice; 300 mg/kg, 2.0 h): 0/8
ED50 (corneal kindled mouse): 59 mg/kg
TD50 (in vivo [1]): 698 mg/kg
ED50 [2]: 70 mg/kg
ED50 [3]: > 250 mg/kg
scMet ED50 [3]: inactive
Ki (hCA VII): 351 nM
ED50 ([4]; ip, read-out: MES-ED50, rats, i.p.): 13 mg/kg
ED50 [4, 7]: 28 mg/kg
MES-ED50 [4]: 23 mg/kg
responders at 30 mg/kg ([5]; 0.5 h): 75%
responders at 100 mg/kg ([5]; 0.5 h): 100%
responders at 300 mg/kg ([5]; 0.5 h): 75%
responders at 30 mg/kg ([5]; 2 h): 25%
responders at 100 mg/kg ([5]; 2 h): 100%
responders at 300 mg/kg ([5]; 2 h): 100%
ED50 [5]: 14 mg/kg
TD50 (in vivo [6]; ip): > 250 mg/kg
TD50 (in vivo [6]; male, po): > 500 mg/kg
melting point: 168 to 169 °C
responders at 30 mg/kg (6 Hz psychomotor seizure; 0.5 h): 25%
responders at 100 mg/kg (6 Hz psychomotor seizure; 0.5 h): 75%
responders at 300 mg/kg (6 Hz psychomotor seizure; 0.5 h): 100%
responders at 30 mg/kg (6 Hz psychomotor seizure; 2 h): 0%
responders at 100 mg/kg (6 Hz psychomotor seizure; 2 h): 50%
responders at 300 mg/kg (6 Hz psychomotor seizure; 2 h): 100%
ED50 (6 Hz psychomotor seizure; read-out: 6 Hz (44 mA)-ED50, mice, i.p., 44 mA): 88 mg/kg
ED50 (6 Hz psychomotor seizure; [8]): 80 mg/kg
